Read-outs that look alike come from different tables or passages of the source.
Columns and labels:
[1] = tested on: ovarian cancer cell lines; assay: Cell based assay, cell viability (CellTiter-Glo), ovarian cancer cell lines; conditions: Homo sapiens; OVCAR-3 cells
Experimental: (§1) Commercially available bladder cancer, prostate cancer, lung cancer, breast cancer, blood cancer, pancreatic cancer, colorectal cancer, brain cancer, neuroblastoma, melanoma, liver cancer, cervical carcinoma, ovarian cancer, renal cancer, and papilloma cell lines were each treated with trypsin-EDTA and cultured, followed by being seeded in each well of a 96 well plate. After 24 hours of treatment at constant temperature, the respective cells were treated with the candidate compound so that a final concentration became 0 to 2 μM. The treated cells were additionally cultured for 72 hours, and cell viability was measured by using an ATP detection method (CellTiter-Glo® Luminescent Cell Viability Assay, Promega).

[2] = tested on: RT4: human urinary bladder transitional cell papilloma; assay: Cell based assay, cytotoxicity in RT4 papilloma cells (selectivity); conditions: Homo sapiens, RT-4; RT4 cells
Experimental: as §1, with “After 24 hours of treatment at constant temperature, the respective cells were treated with the candidate compound so that a final concentration became 0 to 2 μM.” left out

[3] = tested on: breast cancer cell lines (e.g. MDA-MB-231, SK-BR-3, MDA-MB-468, HCC1954); assay: Cell based assay, cell viability (CellTiter-Glo), breast cancer cell lines
Experimental: as §1

[4] = Breast cancer cell line MDA-MB-231-L/DOX, 72 hours, CellTiter-Glo, read-out: IC50, MDA-MB-231-L/DOX
[5] = Homo sapiens, Breast cancer cell line BT-20, 72 hours, CellTiter-Glo, read-out: IC50, BT-20
[6] = Homo sapiens, Breast cancer cell line HCC1395, 72 hours, CellTiter-Glo, read-out: IC50, HCC1395
[7] = Homo sapiens, Breast cancer cell line HCC1954, 72 hours, CellTiter-Glo, read-out: IC50, HCC1954
[8] = Homo sapiens, Breast cancer cell line JIMT-1, 72 hours, CellTiter-Glo, read-out: IC50, JIMT-1
[9] = Homo sapiens, Breast cancer cell line MCF7, 72 hours, CellTiter-Glo, read-out: IC50, MCF7
[10] = Homo sapiens, Breast cancer cell line MDA-MB-231, 72 hours, CellTiter-Glo, read-out: IC50, MDA-MB-231
[11] = Homo sapiens, Breast cancer cell line MDA-MB-468, 72 hours, CellTiter-Glo, read-out: IC50, MDA-MB-468
[12] = Homo sapiens, Breast cancer cell line SK-BR-3, 72 hours, CellTiter-Glo, read-out: IC50, SK-BR-3
[13] = Homo sapiens, BT-20 cells, 72 hours treatment, CellTiter-Glo cell viability, read-out: IC50, Breast cancer cell line BT-20
[14] = Homo sapiens, HCC1395 cells, 72 hours treatment, CellTiter-Glo cell viability, read-out: IC50, Breast cancer cell line HCC1395
[15] = Homo sapiens, HCC1954 cells, 72 hours treatment, CellTiter-Glo cell viability, read-out: IC50, Breast cancer cell line HCC1954
[16] = Homo sapiens, JIMT-1 cells, 72 hours treatment, CellTiter-Glo cell viability, read-out: IC50, Breast cancer cell line JIMT-1
[17] = Homo sapiens, MCF7 cells, 72 hours treatment, CellTiter-Glo cell viability, read-out: IC50, Breast cancer cell line MCF7
[18] = Homo sapiens, MDA-MB-231 cells, 72 hours treatment, CellTiter-Glo cell viability, read-out: IC50, Breast cancer cell line MDA-MB-231
[19] = Homo sapiens, MDA-MB-468 cells, 72 hours treatment, CellTiter-Glo cell viability, read-out: IC50, Breast cancer cell line MDA-MB-468
[20] = Homo sapiens, SK-BR-3 cells, 72 hours treatment, CellTiter-Glo cell viability, read-out: IC50, Breast cancer cell line SK-BR-3
[21] = MDA-MB-231-L/DOX cells, 72 hours treatment, CellTiter-Glo cell viability, read-out: IC50, Breast cancer cell line MDA-MB-231-L/DOX

Row | SMILES | IC50 [1] [nM] | IC50 [2] [nM] | IC50 [3, 4] [nM] | IC50 [3, 5] [nM] | IC50 [3, 6] [nM] | IC50 [3, 7] [nM] | IC50 [3, 8] [nM] | IC50 [3, 9] [nM] | IC50 [3, 10] [nM] | IC50 [3, 11] [nM] | IC50 [3, 12] [nM] | IC50 [3, 13] [nM] | IC50 [3, 14] [nM] | IC50 [3, 15] [nM] | IC50 [3, 16] [nM] | IC50 [3, 17] [nM] | IC50 [3, 18] [nM] | IC50 [3, 19] [nM] | IC50 [3, 20] [nM] | IC50 [3, 21] [nM]
1 | CC(=O)c1c(Sc2ccccc2)[nH]c2c(Br)ccc(Cl)c2c1=O [Compound 12, 3-acetyl-8-bromo-5-chloro-2-(phenylthio)quinolin-4(1H)-one] | > 2000 | > 10000 | > 2000 | > 2000 | > 10000 | > 2000 | > 10000 | > 2000 | > 2000 | > 2000 | > 2000 | – | – | – | – | – | – | – | – | –
2 | CC(=O)c1c([S+]([O-])Cc2cccc(S(F)(F)(F)(F)F)c2)[nH]c2c(Br)ccc(Cl)c2c1=O (stereo not drawn) [Compound 77, 3-acetyl-8-bromo-5-chloro-2-((3-(pentafluoro--sulfanyl)benzyl)sulfinyl)quinolin-4(1H)-one] | 1130 | > 10000 | > 2000 | > 2000 | > 10000 | > 2000 | > 10000 | > 2000 | > 2000 | > 2000 | 1440 | – | – | – | – | – | – | – | – | –
3 | CC(=O)c1c([S+]([O-])Cc2ccc(Cl)cc2)[nH]c2c(Br)ccc(Cl)c2c1=O (stereo not drawn) [Compound 11, 3-acetyl-8-bromo-5-chloro-2-((4-chlorobenzyl)sulfinyl)quinolin-4(1H)-one] | > 2000 | > 10000 | > 2000 | > 2000 | > 10000 | > 2000 | > 10000 | > 2000 | > 2000 | > 2000 | > 2000 | – | – | – | – | – | – | – | – | –
4 | CC(=O)c1c(SCc2cccc(I)c2)[nH]c2c(Br)ccc(Cl)c2c1=O [Compound 47, 3-acetyl-8-bromo-5-chloro-2-((3-iodobenzyl)thio)quinolin-4(1H)-one] | > 2000 | > 10000 | > 2000 | > 2000 | > 10000 | > 2000 | > 10000 | > 2000 | > 2000 | > 2000 | > 2000 | – | – | – | – | – | – | – | – | –
5 | CCS(=O)(=O)n1c([S+](C)[O-])c(C(C)=O)c(=O)c2c(Cl)ccc(Br)c21 (stereo not drawn) [Compound 39, 3-acetyl-8-bromo-5-chloro-1-(ethylsulfonyl)-2-(methylsulfinyl)quinolin-4(1H)-one] | > 2000 | > 10000 | > 2000 | > 2000 | > 10000 | > 2000 | > 10000 | > 2000 | > 2000 | > 2000 | > 2000 | – | – | – | – | – | – | – | – | –
6 | CC(=O)c1c([S+]([O-])C(C)c2ccccc2)[nH]c2c(Br)ccc(Cl)c2c1=O (stereo not drawn) [Compound 26, 3-acetyl-8-bromo-5-chloro-2-((1-phenylethyl)sulfinyl)quinolin-4(1H)-one] | > 2000 | > 10000 | > 2000 | > 2000 | > 10000 | > 2000 | > 10000 | > 2000 | > 2000 | > 2000 | > 2000 | – | – | – | – | – | – | – | – | –
7 | CC(C)C(=O)c1c([S+]([O-])Cc2ccc(SC(F)(F)F)cc2)[nH]c2c(F)ccc(F)c2c1=O (stereo not drawn) [Compound 85, 5,8-difluoro-3-isobutyryl-2-((4-((trifluoromethyl)thio)benzyl)sulfinyl)quinolin-4(1H)-one] | > 2000 | > 10000 | – | – | – | – | – | – | – | – | – | > 2000 | > 10000 | > 2000 | > 10000 | > 2000 | > 2000 | > 2000 | > 2000 | > 2000
8 | CSc1c(C(C)=O)c(=O)c2cc(F)ccc2n1C [Compound 7, 3-acetyl-6-fluoro-1-methyl-2-(methylthio)quinolin-4(1H)-one] | > 2000 | > 10000 | > 2000 | > 2000 | > 10000 | > 2000 | > 10000 | > 2000 | > 2000 | > 2000 | > 2000 | – | – | – | – | – | – | – | – | –
9 | COC(=O)c1ccc(C[S+]([O-])c2[nH]c3c(Cl)ccc(Cl)c3c(=O)c2C(C)=O)cc1 (stereo not drawn) [Compound 91, methyl 4-(((3-acetyl-5,8-dichloro-4-oxo-1,4-dihydroquinolin-2-yl)sulfinyl)methyl)benzoate] | 1740 | > 10000 | – | – | – | – | – | – | – | – | – | > 2000 | > 10000 | 1820 | > 10000 | > 2000 | > 2000 | 1320 | 1320 | > 2000
